In publication PMC6537702, “Design, synthesis, molecular modelling, and biological evaluation of novel substituted pyrimidine derivatives as potential anticancer agents for hepatocellular carcinoma” (Journal of Enzyme Inhibition and Medicinal Chemistry, 2019):
Values after ≈ are worked out from the molar mass of the structure shown. Like-named read-outs stand apart in the source and are kept apart here.

Key:
[1] = tested on: Huh-7 cell line; assay: Resazurin cell growth inhibition assay, Huh-7; format: cell-based, human; conditions: Homo sapiens
From the text: (§1) All compounds 2a-e, 3a-d, and PPAD’s 4a-t were subjected to a screening system for evaluation of their anticancer activity against cell line of human cancer, namely liver (HepG2 and Huh-7) cancer and normal fibroblast cells obtained from the German Cancer Research Center (DKFZ), following the Resazurin Cell Growth Inhibition Assay[45] in comparison to the standard treatment using DOX (see Supplementary).
(§2) Cell culture and treatment
(§3) All reagents were handled in a sterile fume hood. DMEM medium, and fetal bovine serum (FBS) were purchased from Gibco;phosphate-buffered saline pH 7.4 (PBS) and trypsin-EDTA were obtained from Sigmae Aldrich. Alamar Blue or Resazurin (Promega,Mannheim, Germany) reduction assay was used to assess the cytotoxicity of the studied samples. The growth medium (DMEMmedium with 10% FBS, 10 0 U/mL penicillin, and 10 0 mg/L streptomycin), and alamar blue were stored at 48 C, while trypsineEDTA and FBS were stored frozen at 208C and thawed before use; PBS was stored at room temperature. The Hep-G2, Huh-7 and normal fibroblast cells were obtained from the German Cancer Research Center (DKFZ).Cells were cultured in 50 cm2 culture flask s (Corning) using DMEM medium supplemented with 10% FBS, penicillin (10 0 IU/mL), and streptomycin ([…]). The culture was maintained at 37 C atmosphere of 5% CO2 and 95% relative humidity. The cells were transferred to a new fl ask every 2 days and treated with trypsineEDTA to detach them from the flask . Cells were counted under a microscope using a hemacytometer (Hausser Scientific).Cell solutions were diluted with growth medium to a concentration of 1 *10^5 cells/mL and transferred to a 96-well plate, and treated with gradient concentrations of test compounds.
(§4) Resazurin cell growth inhibition assay
(§5) Alamar Blue or Resazurin (Promega, Mannheim, Germany) reduction assay was used to assess the cytotoxicity of the studied samples. The assay tests cellular viability and mitochondrial function. Briefly y, adherent cells were grown in tissue culture flask s, and then harvested by treating the fl asks with 0.025% trypsin and0.25 mM EDTA for 5 min. Once detached, cells were washed, counted and an aliquot (5 * 103cells) was placed in each well of a96-well cell culture plate in a total volume of […]. Cells were allowed to attach overnight and then treated with samples. The final concentration of samples ranged from 0 to 10 0 mM. After 4 8 h,[…] Resazurin 0.01% w/v solution was added to each well and the plates were incubated at 37C for 1 -2 h. Fluorescence was measured on an automated 96-well Infinite M2000 ProTM plate reader (Tecan, Crailsheim, Germany) using an excit ation wave-length of 54 4 nm and an emission wavelength of 590 nm. Doxorubicin was used as positive control. Each assay was done at least three times, with two replicates each. The viability was compared based on a comparison with untreated cells. IC50(on cancer cells) were the concentration of sample required to inhibit 50% of the cell proliferation and were calculated from a calibration curve by a linear regression using Microsoft Excel

[2] = Resazurin cell growth inhibition assay, normal fibroblast cells; format: cell-based; conditions: M ± SEM of three independent experiments, read-out: Cytotoxic activity IC50, Fibroblast
From the text: as §1, §2, §3, §4, §5

[3] = tested on: caspase 3/7 activity in Huh-7 cells; assay: Caspase-Glo 3/7 assay, Huh-7; format: cell-based, human; conditions: 24 h incubation; 2 IC50, IC50, ½ IC50; vs DMSO solvent control; p < .05, n = 3
[4] = tested on: caspase 3/7 activity in HepG2 cells; assay: Caspase-Glo 3/7 assay, HepG2; format: cell-based, human; conditions: 24 h incubation; 2 IC50, IC50, ½ IC50; vs DMSO solvent control; p < .05, n = 3
From the text: The influence of our test samples on caspase 3/7 activity in liver cancer cells (HepG2 cells) was detected using Caspase-Glo 3/7 Assay kit (Promega, Madison, WI) as previously described[45] (see Supplementary).
as §2, §3, §4
Alamar Blue or Resazurin (Promega, Mannheim, Germany) reduction assay was used to assess the cytotoxicity of the studied samples. The assay tests cellular viability and mitochondrial function. Briefly y, adherent cells were grown in tissue culture flask s, and then harvested by treating the fl asks with 0.025% trypsin and0.25 mM EDTA for 5 min. Once detached, cells were washed, counted and an aliquot (5 * 103cells) was placed in each well of a96-well cell culture plate in a total volume of […]. Cells were allowed to attach overnight and then treated with samples. The final concentration of samples ranged from 0 to 10 0 mM. […] Fluorescence was measured on an automated 96-well Infinite M2000 ProTM plate reader (Tecan, Crailsheim, Germany) using an excit ation wave-length of 54 4 nm and an emission wavelength of 590 nm. […]
The influence of our test samples on cas pase 3/7 activity in […] was detected using Caspase -Glo 3/7 Assay kit (Promega). […] Luminescence was measured using well Infinite M2000 Pro TM instrument (Tecan).Caspase 3/7 activity was expressed as percentage of the unt reated

[5] = tested on: HepG2 cell line; assay: Resazurin cell growth inhibition assay, HepG2; format: cell-based, human; conditions: Homo sapiens
From the text: as §1, §2, §3, §4, §5

[6] = Huh-7, 48 h, resazurin assay, 48 h, M ± SEM of three independent experiments, read-out: Cytotoxic activity IC50, Huh-7 cell line
[7] = Huh-7, converted from μg/mL, read-out: IC50 against Huh-7 cell line, equivalent in μM
[8] = HepG2, 48 h, resazurin assay, 48 h, M ± SEM of three independent experiments, read-out: Cytotoxic activity IC50, HepG2 cell line
[9] = HepG2, converted from μg/mL, read-out: IC50 against HepG2 cell line, equivalent in μM

Molecule `N#Cc1c(-c2ccc(F)cc2)nc(N2N=C(c3c4ccccc4cc4ccccc34)CC2c2ccc(F)cc2)[nH]c1=O` (stereo not shown) [Compound 4e, 2-[3-Anthracene-9-yl-5–(4-fluoro-phenyl)-4,5-dihydro-pyrazol-1-yl]-4–(4-fluoro-phenyl)-6-oxo-1,6-dihydro-pyrimidine-5-carbonitrile] has an IC50 [1, 6] of 6.13 ± 1.01 µg/mL, an IC50 [1, 7] of 11.1 µM and an IC50 at 48 h [2] of 24.1 ± 4.63 µg/mL (≈ 43.6 µM). The “activation of caspase 3/7, Huh-7 cell line” value (shortened to “activation … Huh-7 cell line”) [3] was “significant increase”, the “activation of caspase 3/7, HepG2 cell line” value (shortened to “activation … HepG2 cell line”) [4] was “significant increase” and the IC50 [5, 8] was 5.34 ± 0.21 µg/mL. It also gave an IC50 [5, 9] of 9.6 µM.

`N#Cc1c(-c2c[nH]c3ccccc23)nc(N2N=C(c3c4ccccc4cc4ccccc34)CC2c2ccc(F)cc2)[nH]c1=O` (stereo not shown) [Compound 4i, 2-[3-Anthracene-9-yl-5–(4-fluoro-phenyl)-4,5-dihydro-pyrazol-1-yl]-4-(1H-indol-3-yl)-6-oxo-1,6-dihydro-pyrimidine-5-carbonitrile] gave an IC50 [1, 6] of 6.47 ± 0.41 µg/mL, an IC50 [1, 7] of 11.2 µM and an IC50 at 48 h [2] of 31.4 ± 2.07 µg/mL (≈ 54.7 µM). The “activation … Huh-7 cell line” value [3] was “significant increase”, the melting point was 184 to 185 °C and the “activation … HepG2 cell line” value [4] was “significant increase”. It also gave an IC50 [5, 8] of 9.54 ± 1.24 µg/mL.

In the case of `COc1cc(-c2nc(N3N=C(c4c5ccccc5cc5ccccc45)CC3c3ccc(F)cc3)[nH]c(=O)c2C#N)cc(OC)c1OC` (stereo not shown) [Compound 4m, 2-[3-Anthracene-9-yl-5–(4-fluoro-phenyl)-4,5-dihydro-pyrazol-1-yl]-6-oxo-4–(3,4,5-trimethoxy-phenyl)-1,6-dihydro-pyrimidine-5-carbonitrile], the IC50 [1, 6] is reported as 7.5 ± 0.98 µg/mL, the IC50 at 48 h [2] is reported as 24.1 ± 4.34 µg/mL (≈ 38.6 µM) and the “activation … Huh-7 cell line” value [3] is reported as “significant increase”. For the same molecule, the melting point was 148 to 150 °C, the “activation … HepG2 cell line” value [4] was “significant increase” and the IC50 [5, 8] was 8.12 ± 1.82 µg/mL.

Work on `COc1cc(-c2nc(N3N=C(c4c5ccccc5cc5ccccc45)CC3c3cc(OC)c(OC)c(OC)c3)[nH]c(=O)c2C#N)cc(OC)c1OC` (stereo not shown) [Compound 4o, 2-[3-Anthracene-9-yl-5–(3,4,5-trimethoxy-phenyl)-4,5-dihydro-pyrazol-1-yl]-6-oxo-4–(3,4,5-trimethoxy-phenyl)-1,6-dihydro-pyrimidine-5-carbonitrile] yielded an IC50 [1, 6] of 14.5 ± 1.24 µg/mL, an IC50 at 48 h [2] of 28.1 ± 3.31 µg/mL (≈ 40.2 µM) and a melting point of 165 to 166 °C. It also gave an IC50 [5, 8] of 10.2 ± 1.02 µg/mL.

For `CN(C)c1ccc(-c2nc(N3N=C(c4c5ccccc5cc5ccccc45)CC3c3ccc(F)cc3)[nH]c(=O)c2C#N)cc1` (stereo not shown) [Compound 4q, 2-[3-Anthracene-9-yl-5–(4-fluoro-phenyl)-4,5-dihydro-pyrazol-1-yl]-4–(4-dimethylamino-phenyl)-6-oxo-1,6-dihydro-pyrimidine-5-carbonitrile], the IC50 [1, 6] was 8.66 ± 1.52 µg/mL, the IC50 at 48 h [2] was 34.3 ± 6.42 µg/mL (≈ 59.3 µM) and the “activation … Huh-7 cell line” value [3] was “significant increase”. The melting point was 182 to 184 °C, the “activation … HepG2 cell line” value [4] was “significant increase” and the IC50 [5, 8] was 6.85 ± 0.85 µg/mL. For the same molecule, the IC50 [5, 9] was 11.8 µM.

`CN(C)c1ccc(-c2nc(N3N=C(c4c5ccccc5cc5ccccc45)CC3c3ccc(N(C)C)cc3)[nH]c(=O)c2C#N)cc1` (stereo not shown) [Compound 4r, 2-[3-Anthracene-9-yl-5–(4-dimethylamino-phenyl)-4,5-dihydro-pyrazol-1-yl]-4–(4-dimethylamino-phenyl)-6-oxo-1,6-dihydro-pyrimidine-5-carbonitrile] gave an IC50 [1, 6] of 7.61 ± 0.21 µg/mL, an IC50 at 48 h [2] of 25.2 ± 5.24 µg/mL (≈ 41.8 µM) and a melting point of 174 to 175 °C. It also gave an IC50 [5, 8] of 8.44 ± 1.1 µg/mL.

In the case of `COc1cc(C2CC(c3c4ccccc4cc4ccccc34)=NN2c2nc(-c3ccc(N(C)C)cc3)c(C#N)c(=O)[nH]2)cc(OC)c1OC` (stereo not shown) [Compound 4s, 2-[3-Anthracene-9-yl-5–(3,4,5-trimethoxy-phenyl)-4,5-dihydro-pyrazol-1-yl]-4–(4-dimethylamino-phenyl)-6-oxo-1,6-dihydro-pyrimidine-5-carbonitrile], the IC50 [1, 6] is reported as 11.3 ± 0.61 µg/mL, the IC50 at 48 h [2] is reported as 20.3 ± 4.15 µg/mL (≈ 31.2 µM) and the melting point is reported as 160 to 162 °C. The IC50 [5, 8] was 8.66 ± 1.44 µg/mL.

Molecule `CN(C)c1ccc(-c2nc(N3N=C(c4c5ccccc5cc5ccccc45)CC3c3c[nH]c4ccccc34)[nH]c(=O)c2C#N)cc1` (stereo not shown) [Compound 4t, 2-[3-Anthracene-9-yl-5-(1H-indol-3-yl)-4,5-dihydro-pyrazol-1-yl]-4–(4-dimethylamino-phenyl)-6-oxo-1,6-dihydro-pyrimidine-5-carbonitrile] has an IC50 [1, 6] of 7.42 ± 1.48 µg/mL, an IC50 at 48 h [2] of 23.5 ± 3.82 µg/mL (≈ 39.2 µM) and a melting point of 190 to 191 °C. For the same molecule, the IC50 [5, 8] was 9.21 ± 1.05 µg/mL.
